From patent publication US5583108A, “Vasonatrin peptide and analogs thereof” (Mayo Foundation for Medical Education and Research, priority 1994, dated 1996)
“Also recorded” adds a separate entry of the source.

Tests used:
[1] = test system: isolated vessels in congestive heart failure dogs; assay: Preliminary studies: vasorelaxation in isolated vessels of congestive heart failure dogs; design: species or system dog
[2] = test system: isolated normal canine blood vessels; assay: Organ chamber isometric force: relaxation of phenylephrine-contracted vessel rings; design: species or system dog; settings: for relaxation: maximal dose (3×10^-6 M); for maximal response, percent change in tension from a contraction to phenylephrine: peptide 3 × 10^-6 M, mean ± SEM
Experimental: (§1) The results obtained are expressed as the means ±SEM. In organ chamber studies, n equals the number of dogs from which rings were taken. Rings with and without endothelium were studied in parallel, and Student's t-test for unpaired observations was used to determine statistical significance among the responses of rings with and without endothelium and between responses of arteries and veins. In rat studies, the data were analyzed using ANOVA for repeated measures followed by Fisher's least significant difference test when appropriate within the group. Data between groups were analyzed by Student's unpaired t-test. Statistical significance was determined at p<0.05.
Rings cut from femoral, saphenous, renal and pulmonary arteries and veins obtained from random source mongrel dogs (anesthetized with 30 mg/kg pentobarbital sodium intravenously) were suspended for the measurement of isometric force in organ chambers filled with aerated (95% O2 and 5% CO2) modified Krebs-Ringer bicarbonate solution (composition in mM: 118.3 NaCl, 4.7 KCl, 2.5 CaCl2, 1.2 MgSO4, 1.2 KH2 PO4, 25.0 NaHCO3, 0.026 calcium sodium EDTA, and 11.1 dextrose; control solution) at 37° C. In one-half rings, the endothelium was removed by gently rubbing the intimal surface with a cotton swab wetted with control solution. Each ring was stretched to the optimal point on its length-tension curve as determined by the tension developed to norepinephrine (3×10^-7 M) at each level of stretch. The presence of endothelium was determined at the beginning of the experiment by a relaxation to acetylcholine (10^-6 M) during a contraction to norepinephrine at optimal length. The maximal tension of each ring was determined by norepinephrine (10^-4 M). To study responses to ANP, CNP and VNP, the rings were contracted with phenylephrine (10^-6 M). These contractions averaged 30-40% of the maximal contraction to norepinephrine. The peptides were added cumulatively once the contraction had stabilized.
The following commercially available drugs were used: acetylcholine chloride (Sigma Chemical, St. Louis, Mo.), human ANP and human CNP (Peninsula Laboratories, Belmont, Calif.), L-norepinephrine bitartrate (Sigma), phenylephrine bitartrate (Sigma). All drugs were dissolved in distilled water immediately prior to study, and the concentrations are reported as the final molar concentration (M) in the organ chamber.

normal rats = assay: Cardiorenal actions after intravenous bolus in anesthetized normal rats; assay type: in vivo, Wistar rats; settings: for MAP mean arterial pressure / HR heart rate / RAP right atrial pressure / UKV urine potassium excretion / UNaV urine sodium excretion / UV urine volume / UcGMPV urine cGMP volume / PcGMP plasma cGMP: mean ± SEM; for MAP mean arterial pressure: n = 4
Experimental: as §1
Experiments were conducted in accordance with the Animal Welfare Act. Wistar rats and spontaneously hypertensive rats (SHR) (400 g; Harlan Sprague-Dawley, Indianapolis, Ind.) were anesthetized with Inactin (100 mg/kg; intraperitoneal; BYK Gulden, Konstanz, Germany). The body temperature was maintained between 36° and 38° C. by a heating pad. Tracheostomy was performed; however, the animals were not artificially ventilated. Polyethylene catheters (PE-50; Becton Dickinson Co., Parsippany, N.J.) were placed in the left Jugular vein for infusions of saline and drugs, in the right jugular vein to right atrium to monitor right atrial pressure, and in the carotid artery for the collection of blood samples and to monitor mean arterial pressure. A PE-90 catheter was placed in the bladder for urine collection.
Experiments were conducted in three groups in normal rats: ANP group (n=4), CNP group (n=4), and VNP group (n=4). VNP also was studied in SHR rats (n=4). Intravenous infusions of saline solution (0.9% NaCl) were performed (1 ml/100 gm body weight/hr) through the left jugular vein catheter. After completion of surgery, rats were allowed to stabilize for 30 minutes. In each group, a 15-min baseline period followed. After the baseline period, saline solution (0.9% NaCl) was administered in a bolus fashion (0.1 ml) and was followed by a 15-min period. After the saline period, the peptide (ANP, CNP or VNP) was administered in a bolus fashion (0.1 ml) at 5 μg/kg which was followed by a 15-min period. This was followed by a second bolus (0.1 ml) at 50 μg/kg and a 15-min period. After a 30-min washout, a 15-min recovery period followed. During each experimental period, mean arterial pressure (MAP), heart rate (HR), and right atrial pressure (RAP) were measured. At the midpoint of baseline, second bolus fashion (50 μg/kg) and recovery periods, blood was sampled for plasma cGMP. At the end of each period, urine was measured for volume (UV), and samples were stored for electrolytes and cGMP analysis.
Blood for plasma cGMP analysis was collected into EDTA tubes, immediately placed on ice, and centrifuged at […] at 4° C. Plasma was separated and stored at -20° C. until assay. Urine for cGMP determination was heated to >90° C. before storage. Plasma and urine cGMP were determined by a specific RIA as previously described by A. L. Steiner et al., J. Hypertension, 5 (Suppl. 5) 551-553 (1987).

[3] = test system: vessels pre-contracted with endothelin; assay: Relaxation of vessels pre-contracted with endothelin
[4] = normal rats, high dose (50 μg/kg) bolus

CC[C@H](C)[C@@H]1NC(=O)[C@H](CCCNC(=N)N)NC(=O)[C@H](CC(=O)O)NC(=O)[C@H](CC(C)C)NC(=O)[C@H](CCCCN)NC(=O)[C@H](CC(C)C)NC(=O)CNC(=O)[C@H](Cc2ccccc2)NC(=O)[C@@H](NC(=O)CNC(=O)[C@H](CCCCN)NC(=O)[C@H](CO)NC(=O)[C@H](CC(C)C)NC(=O)CN)CSSC[C@@H](C(=O)N[C@@H](CC(N)=O)C(=O)N[C@@H](CO)C(=O)N[C@@H](Cc2ccccc2)C(=O)N[C@@H](CCCNC(=N)N)C(=O)N[C@@H](Cc2ccc(O)cc2)C(=O)O)NC(=O)CNC(=O)[C@H](CC(C)C)NC(=O)CNC(=O)[C@H](CO)NC(=O)[C@H](CCSC)NC(=O)[C@H](CO)NC(=O)CNC1=O [VNP, vasonatrin peptide]
vasorelaxing actions (in words) [1]: potent vasorelaxing actions
relaxation ([2]; femoral and saphenous arteries): 90-100%
maximal response, percent change in tension from a contraction to phenylephrine ([2]; femoral artery, with endothelium, phenylephrine 10^-6 M): 91 ± 4%
maximal response, percent change in tension from a contraction to phenylephrine ([2]; femoral artery, without endothelium): 89 ± 5%
maximal response, percent change in tension from a contraction to phenylephrine ([2]; femoral vein, with endothelium): 81 ± 6%
maximal response, percent change in tension from a contraction to phenylephrine ([2]; femoral vein, without endothelium): 86 ± 6%
relaxation ([2]; femoral veins): 90%
order of potency ([2]; pulmonary arteries): ANP=VNP>CNP
maximal response, percent change in tension from a contraction to phenylephrine ([2]; pulmonary artery, with endothelium): 57 ± 5%
maximal response, percent change in tension from a contraction to phenylephrine ([2]; pulmonary artery, without endothelium): 63 ± 7%
maximal response, percent change in tension from a contraction to phenylephrine ([2]; pulmonary vein, with endothelium): 71 ± 2%
maximal response, percent change in tension from a contraction to phenylephrine ([2]; pulmonary vein, without endothelium): 84 ± 3%
order of potency ([2]; pulmonary veins without endothelium): VNP>CNP>ANP
maximal response, percent change in tension from a contraction to phenylephrine ([2]; renal artery, with endothelium): 52 ± 4%
maximal response, percent change in tension from a contraction to phenylephrine ([2]; renal artery, without endothelium): 62 ± 12%
maximal response, percent change in tension from a contraction to phenylephrine ([2]; renal vein, with endothelium): 65 ± 6%
maximal response, percent change in tension from a contraction to phenylephrine ([2]; renal vein, without endothelium): 90 ± 4%
maximal response, percent change in tension from a contraction to phenylephrine ([2]; saphenous artery, with endothelium): 73 ± 3%
maximal response, percent change in tension from a contraction to phenylephrine ([2]; saphenous artery, without endothelium): 81 ± 5%
maximal response, percent change in tension from a contraction to phenylephrine ([2]; saphenous vein, with endothelium): 60 ± 11%
maximal response, percent change in tension from a contraction to phenylephrine ([2]; saphenous vein, without endothelium): 89 ± 6%
relaxation ([2]; saphenous veins): 90%
potency for relaxation (order) ([2]; systemic arteries): VNP>ANP≥CNP
relaxation, % of the contraction to phenylephrine ([2]; systemic arteries (femoral, saphenous and renal)): 50-90%
potency for relaxation (order) ([2]; systemic veins): VNP>CNP>ANP
natriuretic action (in words) (normal rats; in vivo, rat): potent natriuretic effect
change in MAP and RAP (in words) (normal rats; [4]): significant decrease; also recorded: significantly decreased
change in urine flow, sodium excretion, plasma cGMP and urinary cGMP volume (in words) (normal rats; [4]): significantly increased
increase in urine flow, sodium excretion and urinary cGMP volume compared between peptides (normal rats; [4]): significantly higher with VNP than those of CNP, but were less than those of ANP
MAP mean arterial pressure (normal rats; normal rats, iv bolus 5 μg/kg, 15-min period): 93 ± 15 mmHg
HR heart rate (normal rats; normal rats, iv bolus 5 μg/kg): 393 ± 20 beats/min
RAP right atrial pressure (normal rats; normal rats, iv bolus 5 μg/kg): -3.5 ± 0.9 mmHg
UKV urine potassium excretion (normal rats; normal rats, iv bolus 5 μg/kg): 3.3 ± 1.4 µmol/min
UNaV urine sodium excretion (normal rats; normal rats, iv bolus 5 μg/kg): 5.3 ± 1.9 µmol/min
UV urine volume (normal rats; normal rats, iv bolus 5 μg/kg): 32.2 ± 7.5 µL/min
UcGMPV urine cGMP volume (normal rats; normal rats, iv bolus 5 μg/kg): 113 ± 27 pmol/min
HR heart rate (normal rats; normal rats, iv bolus 50 μg/kg): 408 ± 25 beats/min
PcGMP plasma cGMP (normal rats; normal rats, iv bolus 50 μg/kg): 33.3 ± 8.7 pmol/mL
RAP right atrial pressure (normal rats; normal rats, iv bolus 50 μg/kg): -4.3 ± 0.8 mmHg
UKV urine potassium excretion (normal rats; normal rats, iv bolus 50 μg/kg): 11.9 ± 4.7 µmol/min
UNaV urine sodium excretion (normal rats; normal rats, iv bolus 50 μg/kg): 22.5 ± 2.2 µmol/min
UV urine volume (normal rats; normal rats, iv bolus 50 μg/kg): 136 ± 5.5 µL/min
UcGMPV urine cGMP volume (normal rats; normal rats, iv bolus 50 μg/kg): 961 ± 82 pmol/min
MAP mean arterial pressure (normal rats; normal rats, recovery period after 30-min washout): 93 ± 15 mmHg
HR heart rate (normal rats; normal rats, recovery period): 390 ± 20 beats/min
PcGMP plasma cGMP (normal rats; normal rats, recovery period): 4.4 ± 1.4 pmol/mL
RAP right atrial pressure (normal rats; normal rats, recovery period): -2.9 ± 0.9 mmHg
UKV urine potassium excretion (normal rats; normal rats, recovery period): 1.3 ± 0.6 µmol/min
UNaV urine sodium excretion (normal rats; normal rats, recovery period): 0.9 ± 0.3 µmol/min
UV urine volume (normal rats; normal rats, recovery period): 8.4 ± 2.7 µL/min
UcGMPV urine cGMP volume (normal rats; normal rats, recovery period): 88 ± 48 pmol/min
MAP mean arterial pressure (normal rats; normal rats, second iv bolus 50 μg/kg, 15-min period): 79 ± 15 mmHg
relaxation of pre-contracted vessels (in words) [3]: able to relax
